Data published in patent US8420119B2, “Drug composition for treating tumor with polymeric micelle encapsulating anti-neoplastic” (Industrial Technology Research Institute, priority 2009, dated 2013).
≈ marks a conversion by molar mass, not a printed value.

Tests used:
[1] = Release test using dialysis bag; format: physicochemical; settings: dialysis against PBS pH 7.4, 37° C.
Protocol: A 50 μL solution of a pharmaceutical composition, which was prepared according to the method as set forth above, was added into a dialysis bag having a molecular weight cutoff of about 3,500 Daltons, and then was dialyzed against a 50 ml phosphate buffered saline (PBS) (pH 7.4) at 37° C. After 1, 2, 4, and 8 hours of dialysis, 250 μL out-of-bag buffers were taken respectively, and then each was then mixed with 750 μL methanol (in 0.6N HCl). The quantity of each drug, which was released from the polymeric micelle and then dialyzed into the out-of-bag buffer, was determined by HPLC. A 50 μL CPT containing DMSO solution (CPT-DMSO) was used as a control.

[2] = Direct dilution test (remained lactone form); format: physicochemical; settings: PBS pH 7.4, 37° C.
Protocol: A 150 μL solution of a pharmaceutical composition in accordance with the present disclosure, which was prepared according to the method as set forth above, was mixed with 1350 μL of PBS (pH 7.4), and then incubated at 37° C. After 1, 2, 4, and 8 hours of incubation, 10 μL incubated solutions were taken respectively, and each was mixed with 990 μL of methanol. The quantity of lactone form CPT or SN38 in the mixtures was determined by HPLC. A 150 μL CPT containing DMSO solution (CPT-DMSO) was used as a control.

[3] = In vivo kinetic test of CPT; set-up: species or system SD mice; settings: SD, mouse, plasma
Protocol: The concentrations of lactone form CPT in bloods over the time were then determined by HPLC.
(§1) T1/2 (hr), AUCINF(hr*ng/ml), CL(mL/hr/kg), and Vss (mL/kg) in Table 2 represent half-life time, area under the curve to infinity, clearance, and volume of distribution at steady state, and the units thereof, respectively. The n represents sample number. These parameters can be measured and/or calculated according to the techniques known in the art.

5637 = assay: MTT assay 5637; format: cell-based, human; settings: Bladder, 5637, 72 hours
Protocol: (§2) Various human cancer lines, such as A549, AS2, and H460, were implanted onto multi-well plates and Dulbecco's Modified Eagle Media (high glucose) with 10% of fetal bovine serum and 1% of P/S being added to each well. […] Then a 20 μL of 0.5 mg/ml MTT (3-(4,5-dimethylthiazol-2-yl)-2,5-diphenyltetrazolium bromide) solution was added to each well to start the reaction. After 2 hours, the suspension of each well was removed and DMSO was added into the well to dissolve formazan, which was formed during the reaction. The living cell concentration was then obtained by analyzing the OD570 and OD600 data of each well.

SCC-25 = assay: MTT assay SCC-25; format: cell-based, human; settings: Tongue, SCC-25, 72 hours
Protocol: as §2

A549 = assay: MTT assay A549; format: cell-based, human; settings: Lung, A549, 72 hours
Protocol: as §2

OVCAR-3 = assay: MTT assay OVCAR-3; format: cell-based, human; settings: Ovarian, OVCAR-3, 72 hours
Protocol: as §2

MCF-7 = assay: MTT assay MCF-7; format: cell-based, human; settings: Breast, MCF-7, 72 hours
Protocol: as §2

hepG2/C3A = assay: MTT assay hepG2/C3A; format: cell-based, human; settings: Liver, 72 hours
Protocol: as §2

AGS = assay: MTT assay AGS; format: cell-based, human; settings: Stomach, 72 hours
Protocol: as §2

SK-HEP-1 = assay: MTT assay SK-HEP-1; format: cell-based, human; settings: Liver, SK-HEP-1, 72 hours
Protocol: as §2

RPMI2650 = assay: MTT assay RPMI2650; format: cell-based, human; settings: Nasalseptum, RPMI2650, 72 hours
Protocol: as §2

H460 = assay: MTT assay H460; format: cell-based, human; settings: Lung, H460, 72 hours
Protocol: as §2

U-87 MG = assay: MTT assay U-87 MG; format: cell-based, human; settings: Brain, 72 hours
Protocol: as §2

PC-3 = assay: MTT assay PC-3; format: cell-based, human; settings: Prostate, PC-3, 72 hours
Protocol: as §2

AS2 = assay: MTT assay AS2; format: cell-based, human; settings: Lung, AS2, 72 hours
Protocol: as §2

HT29 = assay: MTT assay HT29; format: cell-based, human; settings: Colorectal, HT29, 72 hours
Protocol: as §2

[4] = In vivo kinetic test of SN38; set-up: species or system SD mice; settings: for lactone form SN38 in plasma: 4 mg/kg SN38 vein injection
Protocol: The concentrations of lactone form SN38 in bloods over the time were then determined by HPLC.
as §1, with “Table 7” for “Table 2”, “time, […],” for “time,”

Colo 205 = assay: MTT assay Colo 205; format: cell-based, human; settings: Colorectal, Colo 205, 72 hours
Protocol: as §2

[5] = iv, lactone form CPT, 1 mg/kg vein injection
[6] = plasma SN38, 4 mg/kg vein injection

## CC[C@@]1(O)C(=O)OCc2c1cc1n(c2=O)Cc2cc3ccccc3nc2-1 [CPT-DMSO, camptothecin]
[1]; 1 hour
  percentage of released CPT/SN38: 48.2%
[1]; 2 hours
  percentage of released CPT/SN38: 73.9%
[1]; 4 hours
  percentage of released CPT/SN38: 87.2%
[2]; 2 hours
  percentage of remained lactone form CPT and SN38: 26.4%
[2]; 4 hours
  percentage of remained lactone form CPT and SN38: 18.1%
[3]; intravenous, 0.25 hour, 1 mg/kg CPT vein injection, read-out: lactone form CPT in plasma
  concentration at 0.25 h: 19.4 ng/mL
[3]; intravenous, 0.5 hour, 1 mg/kg CPT vein injection, read-out: lactone form CPT in plasma
  concentration at 0.5 h: 11.6 ng/mL
[3]; intravenous, 1 hour, 1 mg/kg CPT vein injection, read-out: lactone form CPT in plasma
  concentration at 1 h: 3.1 ng/mL
[3]; intravenous, 2 hours, 1 mg/kg CPT vein injection, read-out: lactone form CPT in plasma
  concentration at 2 h: 0.3 ng/mL
[3]; [5]
  AUC(0-inf): 16 ± 6 ng·h/mL
  clearance: 1160 mL/min/kg
  half-life: 15 ± 6 min
[3]; iv, lactone form CPT, 1 mg/kg vein injection, read-out: Vss
  Vd: 23.9 ± 6.2 L/kg

## CCc1c2c(nc3ccc(O)cc13)-c1cc3c(c(=O)n1C2)COC(=O)[C@]3(O)CC [SN38, 7-ethyl-10-hydroxycamptothecin]
5637
  IC50: 0.00036 ± 3e-05 µg/mL (≈ 0.000917 µM)
SCC-25
  IC50: 0.01971 ± 0.01128 µg/mL (≈ 0.0502 µM)
A549
  IC50: 0.01387 ± 0.00123 µg/mL (≈ 0.0353 µM)
OVCAR-3
  IC50: 0.02273 ± 0.00214 µg/mL (≈ 0.0579 µM)
MCF-7
  IC50: 0.06093 ± 0.04886 µg/mL (≈ 0.155 µM)
hepG2/C3A
  IC50: 0.0287 ± 0.0092 µg/mL (≈ 0.0731 µM)
AGS
  IC50: 0.04022 ± 0.01424 µg/mL (≈ 0.102 µM)
SK-HEP-1
  IC50: 0.01521 ± 0.00133 µg/mL (≈ 0.0388 µM)
RPMI2650
  IC50: 0.00097 ± 7e-05 µg/mL (≈ 0.00247 µM)
H460
  IC50: 0.00318 ± 0.00026 µg/mL (≈ 0.0081 µM)
U-87 MG
  IC50: 0.01022 ± 0.0026 µg/mL (≈ 0.026 µM)
PC-3
  IC50: 0.0959 ± 0.02127 µg/mL (≈ 0.244 µM)
AS2
  IC50: 0.00176 ± 0.00023 µg/mL (≈ 0.00449 µM)
HT29
  IC50: 0.0034 µg/mL (≈ 0.00866 µM)
[4]; 0.1 Hour(s)
  lactone form SN38 in plasma: 710.8 ng/mL
[4]; 0.2 Hour(s)
  lactone form SN38 in plasma: 505.3 ng/mL
[4]; 0.3 Hour(s)
  lactone form SN38 in plasma: 265.3 ng/mL
[4]; 0.500 Hour(s)
  lactone form SN38 in plasma: 143.4 ng/mL
[4]; 1.0 Hour(s)
  lactone form SN38 in plasma: 32.3 ng/mL
[4]; 2.0 Day(s)
  lactone form SN38 in plasma: 12.5 ng/mL
[4]; 4.0 Day(s)
  lactone form SN38 in plasma: 9.0 ng/mL
[4]; 8.0 Day(s)
  lactone form SN38 in plasma: 7.3 ng/mL
[4]; 24.0 Day(s)
  lactone form SN38 in plasma: 1.0 ng/mL
[4]; [6]
  AUCINF: 417 ng·h/mL
  CL: 41.5 mL/min/kg
  T1/2: 372 min
  Vss: 34.3 L/kg
Colo 205
  IC50: 0.00563 ± 0.00096 µg/mL (≈ 0.0143 µM)
